Measurements published in PubChem BioAssay (NCI).
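Grown in 96-well plates, cells were treated for 48 hours with each compound at five concentrations. Insufficient inhibition: endpoint recorded as highest concentration tested. Abbreviation: GI50, concentration required for 50% inhibition of growth. TGI marks complete inhibition of growth.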

Assays:
Experiment in all cases: DTP human tumour cell line panel, 48 h
HL-60(TB) leukemia = system: HL-60(TB) leukemia
MOLT-4 leukemia = system: MOLT-4 leukemia
BT-549 breast = system: BT-549 breast
PC-3 prostate = system: PC-3 prostate
A549 NSCLC = system: A549 NSCLC
SF-268 CNS = system: SF-268 CNS
SNB-19 CNS = system: SNB-19 CNS
M14 melanoma = system: M14 melanoma
SK-MEL-5 melanoma = system: SK-MEL-5 melanoma
IGROV1 ovarian = system: IGROV1 ovarian
NCI-H522 lung = system: NCI-H522 lung
RXF 393 renal = system: RXF 393 renal
OVCAR-3 ovarian = system: OVCAR-3 ovarian
MDA-MB-468 breast = system: MDA-MB-468 breast
HOP-62 NSCLC = system: HOP-62 NSCLC
NCI/ADR-RES ovarian = system: NCI/ADR-RES ovarian
UO-31 renal = system: UO-31 renal
SW-620 colon = system: SW-620 colon
MDA-MB-231 breast = system: MDA-MB-231 breast
OVCAR-5 ovarian = system: OVCAR-5 ovarian
A498 renal = system: A498 renal
NCI-H226 lung = system: NCI-H226 lung
TK-10 renal = system: TK-10 renal
SN12C renal = system: SN12C renal
CCRF-CEM leukemia = system: CCRF-CEM leukemia
SNB-75 CNS = system: SNB-75 CNS
OVCAR-8 ovarian = system: OVCAR-8 ovarian
SK-MEL-2 melanoma = system: SK-MEL-2 melanoma
786-0 renal = system: 786-0 renal
OVCAR-4 ovarian = system: OVCAR-4 ovarian

## C[C@@H](Nc1c(C#N)cnc2ccc(-c3cnc4[nH]ncc4c3)cc12)c1ccccc1
HL-60(TB) leukemia
  GI50: 1740 nM
  TGI: 7.98 µM
MOLT-4 leukemia
  GI50: 1610 nM
  TGI: 5.02 µM
BT-549 breast
  GI50: 353 nM
  TGI: 4.83 µM
PC-3 prostate
  GI50: 2580 nM
  TGI: > 100 µM
A549 NSCLC
  GI50: 2530 nM
  TGI: 10.9 µM
SF-268 CNS
  GI50: 3.56 µM
  TGI: 34 µM
SNB-19 CNS
  GI50: 2480 nM
  TGI: 28 µM
M14 melanoma
  GI50: 2430 nM
  TGI: 19.1 µM
SK-MEL-5 melanoma
  GI50: 1710 nM
  TGI: 5.96 µM
IGROV1 ovarian
  GI50: 1910 nM
  TGI: 4.07 µM
NCI-H522 lung
  GI50: 1710 nM
  TGI: 11.6 µM
RXF 393 renal
  GI50: 1260 nM
  TGI: 3.55 µM
OVCAR-3 ovarian
  GI50: 2140 nM
  TGI: 11.9 µM
MDA-MB-468 breast
  GI50: 1160 nM
  TGI: 2670 nM
HOP-62 NSCLC
  GI50: 3.03 µM
  TGI: 19 µM
NCI/ADR-RES ovarian
  GI50: 3.71 µM
  TGI: 34.8 µM
UO-31 renal
  GI50: 468 nM
  TGI: 10.8 µM
SW-620 colon
  GI50: 4.65 µM
  TGI: 23.2 µM
MDA-MB-231 breast
  GI50: 2380 nM
  TGI: 13.8 µM
OVCAR-5 ovarian
  GI50: 3.89 µM
  TGI: 18.3 µM
A498 renal
  GI50: 2550 nM
  TGI: 6.8 µM
NCI-H226 lung
  GI50: 2850 nM
  TGI: 14.3 µM
TK-10 renal
  GI50: 2960 nM
  TGI: 8.36 µM
SN12C renal
  GI50: 1570 nM
  TGI: 12.8 µM
CCRF-CEM leukemia
  GI50: 2460 nM
  TGI: > 100 µM
SNB-75 CNS
  GI50: 1100 nM
  TGI: 5.16 µM
OVCAR-8 ovarian
  GI50: 2330 nM
  TGI: 23.5 µM
SK-MEL-2 melanoma
  GI50: 3.23 µM
  TGI: 16 µM
786-0 renal
  GI50: 2740 nM
  TGI: 11.3 µM
OVCAR-4 ovarian
  GI50: 3.47 µM
